Counter-ions that a name gives are not always drawn. Like-named read-outs stand apart in the source and are kept apart here.
Legend:
TEM-1 = molecular target: T1, TEM-1 (Escherichia coli, UniProt P62593); experiment: β-lactamase inhibitory activity, nitrocefin hydrolysis; assay type: biochemical
T1 construct: made in house; host or cells: E. coli

SHV-1 = molecular target: T2, SHV-1 (Klebsiella pneumoniae, UniProt P0AD64); experiment: biochemical
T2 construct: made in house; host or cells: E. coli

CTX-M-15 = molecular target: T3, CTX-M-15 (Escherichia coli, UniProt Q9EXV5); experiment: biochemical
T3 construct: made in house; host or cells: E. coli

KPC-2 = molecular target: T4, KPC-2 (Klebsiella pneumoniae, UniProt Q9F663); experiment: biochemical
T4 construct: made in house; host or cells: E. coli

AmpC P. aeruginosa = molecular target: T5, AmpC P. aeruginosa (Pseudomonas aeruginosa, UniProt P24735); experiment: biochemical
T5 construct: made in house; host or cells: E. coli

OXA-1 = molecular target: T6, OXA-1 (Escherichia coli, UniProt P13661); experiment: biochemical
T6 construct: made in house; host or cells: E. coli

OXA-11 = molecular target: T7, OXA-11 (Pseudomonas aeruginosa, UniProt Q06778); experiment: biochemical
T7 construct: made in house; host or cells: E. coli

OXA-15 = molecular target: T8, OXA-15 (Pseudomonas aeruginosa, UniProt Q51574); experiment: biochemical
T8 construct: made in house; host or cells: E. coli

OXA-48 = molecular target: T9, OXA-48 (Klebsiella pneumoniae, UniProt Q6XEC0); experiment: biochemical
T9 construct: made in house; host or cells: E. coli

P99 AmpC = P99 AmpC (Enterobacter cloacae, UniProt P05364); experiment: biochemical
E. coli ECO 190317 = experiment: MIC of compounds alone, broth microdilution (CLSI); settings: Escherichia coli, ECO190317, read-out: MIC alone
[1] = class (A), nitrocefin 200 μM, 30 min pre-incubation, room temperature, read-out: BLA IC50 TEM-1
[2] = class (A), nitrocefin 200 μM, 30 min pre-incubation, room temperature, read-out: BLA IC50 CTX-M-15
[3] = class (A), nitrocefin 200 μM, 30 min pre-incubation, room temperature, read-out: BLA IC50 KPC-2
[4] = class (C), nitrocefin 200 μM, 30 min pre-incubation, room temperature, read-out: BLA IC50 AmpC (PAE)
[5] = class (D), nitrocefin 200 μM, 30 min pre-incubation, room temperature, read-out: BLA IC50 OXA-1
[6] = class (D), nitrocefin 200 μM, 30 min pre-incubation, room temperature, read-out: BLA IC50 OXA-48

SMILES	IC50 (TEM-1; [1]) [nM]	IC50 (SHV-1) [nM]	IC50 (CTX-M-15; [2]) [nM]	IC50 (KPC-2; [3]) [nM]	IC50 (AmpC P. aeruginosa; [4]) [nM]	IC50 (OXA-1; [5]) [nM]	IC50 (OXA-11) [nM]	IC50 (OXA-15) [nM]	IC50 (OXA-48; [6]) [nM]	IC50 (P99 AmpC) [nM]	MIC (E. coli ECO 190317) [µg/mL]	IC50 (AmpC P. aeruginosa) [nM]	IC50 (TEM-1) [nM]	IC50 (CTX-M-15) [nM]	IC50 (KPC-2) [nM]	IC50 (OXA-1) [nM]	IC50 (OXA-48) [nM]
O=C1N2Cc3nc4cnccc4cc3C(C2)N1OS(=O)(=O)[O-].[Na+] (stereo not drawn) [Example 5, sodium (1,4-methano-3-oxo-1,5-dihydro-[1,3]diazepino[5,6-b][1,7]naphthyridin-2-yl) sulfate]	14	77	14	160	3600	1700	190	1800	1	100	4	–	–	–	–	–	–
CCOC(=O)[C@@H]1c2c(sc3ccccc23)[C@@H]2CN1C(=O)N2OS(=O)(=O)[O-].[Na+] (relative stereo) [Example 2, sulfate]	0.22	0.43	2.6	0.94	–	37	2.2	830	0.66	0.51	–	2.5	–	–	–	–	–
CCOC(=O)[C@@H]1c2c(n(C)c3ccccc23)[C@@H]2CN1C(=O)N2OS(=O)(=O)[O-].[Na+] (relative stereo) [Example 6, sulfate]	0.2	0.25	1.5	4.2	3.6	1300	160	6500	4.6	2	–	–	–	–	–	–	–
CCN(CC)C(=O)N1CCc2sc3c(c2C1)CN1CC3N(OS(=O)(=O)O)C1=O (stereo not drawn) [Example 7, sodium [9-(diethylcarbamoyl)-2,5-methano-3-oxo-5,7,8,10-tetrahydro-1H-pyrido[3,4]thieno[1,3-d][1,3]diazepin-4-yl] sulfate]	–	13	1.3	26	550	5100	110	14000	6.8	–	> 32	–	43	–	–	–	–
O=C1N2Cc3c(sc4c3CNCC4)C(C2)N1OS(=O)(=O)O (stereo not drawn) [Example 8, (2,5-methano-3-oxo-1,5,7,8,9,10-hexahydropyrido[2,3]thieno[2,4-d][1,3]diazepin-4-yl) hydrogen Sulfate]	9.6	26	6.1	1300	8600	15000	840	30000	18	1600	1	–	–	–	–	–	–
Cn1c2c(c3scnc31)C1CN(C2)C(=O)N1OS(=O)(=O)O (stereo not drawn) [Example 9, sodium (6,9-methano-4-methyl-7-oxo-5,9-dihydrothiazolo[3,4]pyrrolo[1,3-d][1,3]diazepin-8-yl) sulfate]	–	0.57	–	–	–	–	62	940	–	120	> 32	590	0.49	1.1	26	290	1.2
O=C1N2Cc3c(sc4ccccc34)C(C2)N1OS(=O)(=O)[O-].[Na+] (stereo not drawn) [Example 1, Sodium (2,5-methano-3-oxo-1,5-dihydrobenzothiopheno[2,3-e][1,3]diazepin-4-yl) sulfate]	0.65	4.1	1	26	–	120	41	3400	1.1	17	16	8.8	–	–	–	–	–
CC(C)(O/N=C(\C(=O)N[C@@H]1C(=O)N2C(C(=O)[O-])=C(C[n+]3ccccc3)CS[C@H]12)c1csc(N)n1)C(=O)O [CAZ, Ceftazidime, reference compound]	–	–	–	–	–	–	–	–	–	–	128	–	–	–	–	–	–
CCOC(=O)[C@@H]1c2c(n(C)c3ccccc23)[C@@H]2CN1C(=O)N2OS(=O)(=O)[O-].[Na+] (relative stereo) [Example 6]	–	–	–	–	–	–	–	–	–	–	> 32	–	–	–	–	–	–
CCOC(=O)[C@@H]1c2c(sc3ccccc23)[C@@H]2CN1C(=O)N2OS(=O)(=O)[O-].[Na+] (relative stereo) [Example 2]	–	–	–	–	–	–	–	–	–	–	> 32	–	–	–	–	–	–
NC(=O)[C@@H]1c2c(sc3ccccc23)[C@@H]2CN1C(=O)N2OS(=O)(=O)[O-].[Na+] (relative stereo) [Example 3, sulfate]	1.3	2.2	2.5	9.3	62	190	31	7100	4.8	4.5	–	–	–	–	–	–	–
NC(=O)[C@@H]1c2c(sc3ccccc23)[C@@H]2CN1C(=O)N2OS(=O)(=O)[O-].[Na+] (relative stereo) [Example 3]	–	–	–	–	–	–	–	–	–	–	8	–	–	–	–	–	–
O=C1N2Cc3nc4ccccc4cc3C(C2)N1OS(=O)(=O)[O-].[Na+] (stereo not drawn) [Example 4, sodium 1,4-methano-3-oxo-1,5-dihydro-[1,3]diazepino[5,6-b]quinolin-2-yl) sulfate]	36	150	9.9	370	2800	4100	590	13000	1.5	120	–	–	–	–	–	–	–
O=C1N2Cc3nc4ccccc4cc3C(C2)N1OS(=O)(=O)[O-].[Na+] (stereo not drawn) [Example 4]	–	–	–	–	–	–	–	–	–	–	8	–	–	–	–	–	–

— patent publication US11530227B2, “Heterocyclic compounds and their use in preventing or treating bacterial infections” (MUTABILIS, priority 2018, dated 2022)
